Reference: patent publication US7722863B2, “Use of granzyme b as an hsp70/hsp70 peptide dependent inducer of apoptosis in tumor cells” (Multimmune GmbH, priority 2002, dated 2010)

Legend:
Colo− tumor cells = experiment: Granzyme B ELISPOT, NK cells co-incubated with tumor cells; type: cell-based, human; details: TKD-stimulated NK cells (NK d3), 4 h coincubation, E:T 5:1, three independent experiments
Protocol: (§1) Granzyme B release was compared in unstimualted NK cells (NK d0) and TKD stimulated NK cells (NK d3) after a 4 h co-incubation period with tumor cell lines CX+/CX− and Colo+/Colo−, at different effector to target cell ratios (E:T) ranging from 20:1 to 2:1. For detection a Granzyme B ELISPOT kit (#552572, BD, Heidelberg, Germany) was used. Briefly, 96-well ELISPOT plates (MAIPN45, Millipore) were coated overnight at 4° C. with capture antibody, blocked with RPMI-1640 culture medium containing 10% FCS and incubated with tumor and effector cells for 4 h at 37° C., as specified before. After washing in deionized water and wash buffers A and B, biotinylated anti-granzyme B antibody was added (2 μg/ml) for 2 h. After another two washing steps granzyme B was visualized by the addition of freshly prepared avidin-horseradish peroxidase (2 h) and substrate solution (25 min incubation period). Spots were counted automatically using ImmunoSpot Series I Analyzer. ^51Cr Release Assay and Inhibition Assay
(§2) Cell kill of CX+/CX− and Colo+/Colo− tumor cells following contact with freshly isolated, unstimulated (NK d0) or Hsp70-peptide TKD stimulated NK cells (NK d3) was quantitated in a 12 h ^51Cr release assay (FIG. 4B). […] Technically, it is not possible to quantify the absolute amount of granzyme B that is transferred from NK cells into tumor cells by cell-to-cell contact. However, relative values of granzyme B release could be determined by ELISPOT analysis. Therefore, a comparison of the cytolytic response of freshly isolated, unstimulated (NK d0) and TKD-stimulated NK cells (NK d3) against CX+/CX− and Colo+/Colo− tumor cells was performed concomitantly with the definition of the granzyme B release. Irrespectively of the tumor cell line and the E:T cell ratio, co-incubation of tumor cells with unstimulated NK cells (NK d0), always results in very low granzyme B release; the number of spots was always less than 20. […] At an E:T ratio of 5:1, the number of granzyme B spots, as determined in three independent experiments, was as follows: CX+ 260±20, CX− 165±6; Colo+ 137±55; Colo− 66±8. […] It was hypothesized that interaction of granzyme B with membrane-bound Hsp70-peptide TKD is key for its uptake into tumor cells and for the induction of apoptosis. When NK cells were removed by washing with PBS and the tumor cells were stained with DAPI. […] Identical results were obtained with Annexin V-FITC staining (data not shown).

CX+ tumor cells = experiment: as above; type: cell-based, human; details: TKD-stimulated NK cells (NK d3), 4 h coincubation, E:T 5:1, three independent experiments
Protocol: as §1, §2

Colo+ tumor cells = experiment: as above; type: cell-based, human; details: TKD-stimulated NK cells (NK d3), 4 h coincubation, E:T 5:1, three independent experiments
Protocol: as §1, §2

CX− tumor cells = experiment: as above; type: cell-based, human; details: TKD-stimulated NK cells (NK d3), 4 h coincubation, E:T 5:1, three independent experiments
Protocol: as §1, §2

Colo− tumor target cells = experiment: 12 h 51Cr release assay, NK cell mediated cytotoxicity; type: cell-based, human; details: TKD 3 days
Protocol: (§3) The NK cell line YT was cultured at cell densities ranging from 0.1-0.5×10^6 cells/ml RPMI-1640 medium (Life Technologies, Eggenstein, Germany) containing 10% heat inactivated fetal calf serum (FCS, Life Technologies, Eggenstein, Germany) supplemented with 6 mM L-glutamine, and antibiotics (100 IU/ml penicillin and 100 μg/ml streptomycin; Life Technologies). Transient plastic adherent NK cells were derived from buffy coats of healthy human volunteers. Ficoll separated peripheral blood mononuclear cells (PBMC) were cultured in rIL-2 (100 IU/ml, Chiron, Frankfurt, Germany) for 12 h. Following adherence selection of monocyte depleted peripheral blood lymphocytes according to a modified method of Vujanovic (Vujanovic et. al. (1993) Cell. Immunol. 151, 133), cells were cultivated in RPMI-1640 medium supplemented with Hsp70-peptide TKD (2 μg/ml) for 3 days. The human tumor sublines CX+/CX− and Colo+/Colo− were derived by cell sorting of CX-2 colon (Hsp70 positive: 60%) and Colo357 pancreas (Hsp70 positive: 70%) carcinoma cell lines using the Hsp70 specific monoclonal antibody C92F3B1, according to a previously described protocol (Multhoff et. al. (1997) J. Immunol. 158, 4341).
(§4) NK cell mediated cytotoxicity was measured using a 12 h ^51Cr radioisotope assay. As target cells the colon carcinoma sublines CX+ and CX− were used. For blocking studies the mAb C92F3B1 and an isotype matched control antibody (IgG1) were used at a final concentration of 5 μg/1×10^6 cells. Following incubation of CX+ and CX− target cells with the antibodies for 30 min at 4° C., the cells were labeled with ^51Cr and the cytotoxicity assay was performed as described by MacDonald (MacDonald et. al. (1974) J. Exp. Med. 140,718). The percentage of specific lysis was calculated as: [(experimental release−spontaneous release)/(maximal release−spontaneous release)]×100.
(§5) Cell kill of CX+/CX− and Colo+/Colo− tumor cells following contact with freshly isolated, unstimulated (NK d0) or Hsp70-peptide TKD stimulated NK cells (NK d3) was quantitated in a 12 h ^51Cr release assay (FIG. 4B). […] Technically, it is not possible to quantify the absolute amount of granzyme B that is transferred from NK cells into tumor cells by cell-to-cell contact. However, relative values of granzyme B release could be determined by ELISPOT analysis. Therefore, a comparison of the cytolytic response of freshly isolated, unstimulated (NK d0) and TKD-stimulated NK cells (NK d3) against CX+/CX− and Colo+/Colo− tumor cells was performed concomitantly with the definition of the granzyme B release. […] At an E:T ratio of 5:1, the number of granzyme B spots, as determined in three independent experiments, was as follows: CX+ 260±20, CX− 165±6; Colo+ 137±55; Colo− 66±8. […]

Colo+ tumor target cells = experiment: as above; type: cell-based, human; details: E:T ratios 2:1 to 20:1; TKD 3 days
Protocol: as §3, §4, §5

CX− tumor target cells = experiment: as above; type: cell-based, human; details: TKD 3 days
Protocol: as §3, §4, §5

CX+ tumor target cells = experiment: as above; type: cell-based, human; details: E:T ratios 2:1 to 20:1; TKD 3 days
Protocol: as §3, §4, §5

CD3 positive T cells = experiment: Intracellular granzyme B expression after treatment with Hsp70-peptide TKD; type: cell-based, human; details: treated with Hsp70-peptide TKD
Protocol: The physiological role of our findings was tested in functional assays using naive and Hsp70 stimulated human NK cells. […] Although Hsp70 acts as a tumor-selective recognition structure for NK cells, as determined by antibody blocking studies (Multhoff et. al. (1997) J. Immunol. 158,4341; Multhoff et. al. (1995) Blood 86,1374), the NK-cytotoxic mechanism remains unclear. To elucidate the possible mechanism, NK cells were incubated with Hsp70-peptide TKD ([…]) for 3 days. […] In contrast, granzyme B expression was not increased in CD3 positive T cells treated with Hsp70-peptide TKD. Light microscopical analysis of Hsp70-peptide activated NK cells co-incubated with Hsp70 membrane-positive CX+ and Hsp70 membrane-negative CX− cells is illustrated in FIG. 4A. Hsp70 membrane-positive CX+ and Hsp70 membrane-negative CX− tumor cells (0.1×10^6 cells/ml) were cultured in duplicates in 24 well plates for 2 days. […] CX+ and CX− tumor cells in the upper panel were cultured in the absence of NK cells; tumor cells in the lower panel were co-cultured for 12 h with NK cells that had been stimulated with Hsp70-peptide TKD (2 μg/ml, 3 days). Nearly 100% of the CX+ cell colonies were found in clusters with NK cells and viability of CX+ tumor cells appears to be reduced. […]

[1] = test system: Hsp70 membrane-negative CX− cells; experiment: Microscopy of tumor cells co-incubated with Hsp70-peptide TKD stimulated NK cells; type: cell-based, human
Protocol: (§6) FIG. 4A: Light microscopy (magnification 20×) of Hsp70 membrane-positive CX+ and Hsp70 membrane-negative CX− cell colonies, either untreated (control) or following a 12 h co-incubation with Hsp70-peptide TKD stimulated NK cells (+NK). The effector to target cell ratio (E:T) was 20:1.
(§7) The physiological role of our findings was tested in functional assays using naive and Hsp70 stimulated human NK cells. […] Although Hsp70 acts as a tumor-selective recognition structure for NK cells, as determined by antibody blocking studies (Multhoff et. al. (1997) J. Immunol. 158,4341; Multhoff et. al. (1995) Blood 86,1374), the NK-cytotoxic mechanism remains unclear. To elucidate the possible mechanism, NK cells were incubated with Hsp70-peptide TKD ([…]) for 3 days. […] In contrast, granzyme B expression was not increased in CD3 positive T cells treated with Hsp70-peptide TKD. Light microscopical analysis of Hsp70-peptide activated NK cells co-incubated with Hsp70 membrane-positive CX+ and Hsp70 membrane-negative CX− cells is illustrated in FIG. 4A. Hsp70 membrane-positive CX+ and Hsp70 membrane-negative CX− tumor cells (0.1×10^6 cells/ml) were cultured in duplicates in 24 well plates for 2 days. […] CX+ and CX− tumor cells in the upper panel were cultured in the absence of NK cells; tumor cells in the lower panel were co-cultured for 12 h with NK cells that had been stimulated with Hsp70-peptide TKD (2 μg/ml, 3 days). Nearly 100% of the CX+ cell colonies were found in clusters with NK cells and viability of CX+ tumor cells appears to be reduced. […] Cell viability of CX− tumor cells following contact with NK cells appears to be less affected, as compared to that of CX+ tumor cells. The inserts in the lower right corner of each graph illustrates a 2.5× magnification of one representative cell colony.
as §5

[2] = test system: Hsp70 membrane-positive CX+ cells; experiment: as above; type: cell-based, human
Protocol: as §6, §7, §5

NK cells = experiment: Intracellular granzyme B expression after stimulation with Hsp70-peptide TKD; type: cell-based, human
Protocol: The NK cell line YT was cultured at cell densities ranging from 0.1-0.5×10^6 cells/ml RPMI-1640 medium (Life Technologies, Eggenstein, Germany) containing 10% heat inactivated fetal calf serum (FCS, Life Technologies, Eggenstein, Germany) supplemented with 6 mM L-glutamine, and antibiotics (100 IU/ml penicillin and 100 μg/ml streptomycin; Life Technologies). Transient plastic adherent NK cells were derived from buffy coats of healthy human volunteers. Ficoll separated peripheral blood mononuclear cells (PBMC) were cultured in rIL-2 (100 IU/ml, Chiron, Frankfurt, Germany) for 12 h. […]
Cells (0.5×10^6) were fixed in paraformaldehyde (1% PFA in PBS) for 10 min, and permeabilized in PBS containing BSA (0.5%), NaN3 (0.1%), and saponin (0.1%). […] Following washing cells were analysed on a FACSCalibur instrument (Becton Dickinson, Heidelberg, Germany).
The physiological role of our findings was tested in functional assays using naive and Hsp70 stimulated human NK cells. […] Although Hsp70 acts as a tumor-selective recognition structure for NK cells, as determined by antibody blocking studies (Multhoff et. al. (1997) J. Immunol. 158,4341; Multhoff et. al. (1995) Blood 86,1374), the NK-cytotoxic mechanism remains unclear. […]

[3] = test system: Hsp70 membrane-positive tumor target cells; details: Hsp70-peptide 0.2-2.0 μg/ml; cited from earlier work
[4] = 12 h co-culture with NK cells stimulated with TKD 2 μg/ml, 3 days, E:T 20:1

TKDNNLLGRFELSG (listed as Homo sapiens) [Hsp70-peptide TKD]
number of granzyme B spots (Colo− tumor cells): 66±8 | number of granzyme B spots (CX+ tumor cells): 260±20 | number of granzyme B spots (Colo+ tumor cells): 137±55 | number of granzyme B spots (CX− tumor cells): 165±6 | lysis of Colo− tumor cells, NK d3 versus NK d0 (Colo− tumor target cells): remained unaffected | lysis of Colo+ cells, TKD stimulated (NK d3) versus naive NK cells (NK d0) (Colo+ tumor target cells): 2.0 fold | lysis of CX− tumor cells, NK d3 versus NK d0 (CX− tumor target cells): remained unaffected | lysis of CX+ cells, TKD stimulated (NK d3) versus naive NK cells (NK d0) (CX+ tumor target cells): 1.5 fold | granzyme B expression in CD3 positive T cells (CD3 positive T cells): not increased | CX− tumor cells in clusters with NK cells [1, 4]: not found in clusters | DNA fragmentation (DAPI) in CX− cells after co-incubation with TKD activated NK cells ([1]; NK cells removed by washing): not | CX+ cell colonies found in clusters with NK cells [2, 4]: ~100% | DNA fragmentation (DAPI) in CX+ cells after co-incubation with TKD activated NK cells ([2]; NK cells removed by washing): showed DNA fragmentation | intracellular granzyme B levels, TKD stimulated NK cells (NK d3) versus naive NK cells (NK d0) (NK cells; Hsp70-peptide TKD 2 μg/ml, 3 days): 1.4 fold | intracellular granzyme B expression in NK cells (NK cells; Hsp70-peptide TKD for 3 days, 3 independent experiments): significantly elevated | cytolytic activity of NK cells against Hsp70 membrane-positive tumor target cells [3]: increased cytolytic activity
